According to patent publication US11305012B2, “Binding molecules specific for HER3 and uses thereof” (MedImmune, LLC, priority 2013, dated 2022):

How the values were obtained:
[1] = system: HER3, pHER3 and pAKT in SW620, SW480, Colo205, LOVO, HCT15, Caco-2; test: HRG-stimulated HER3 signaling in CRC tumor cell lines (Western); format: cell-based, human; conditions: antibodies 10 μg/mL, gefitinib 5 μM, HRG 50 ng/mL
Protocol: In the presence of the HER3 ligand heregulin (HRG), HER3 heterodimerizes with EGFR or HER2, which leads to phosphorylation of HER3 and transmission of an oncogenic signal via phosphoinositide 3 kinase (PI3K) and protein kinase B (PKB), also known as AKT. A collection of CRC models were characterized to determine which receptor tyrosine kinase, EGFR or HER2, is the major driver of signaling through HER3. […] Briefly, cells were seeded into 24-well plates at a density of 1.5×10^5 cells per well. […] After 5-6 hours of incubation at 37° C., HRG was added at 50 ng/mL into one set of cells for 15 minutes at 37° C. All cells were then washed with cold PBS and lysed by the addition of 60 μL of 2×SDS (sodium dodecyl sulfate) sample buffer (Invitrogen). Lysates were transferred to 1.5 mL tubes and boiled for 5 minutes followed by chilling on ice for 2 minutes. Equal volumes (20 μL) of protein samples were resolved in NuPAGE Novex Bis-Tris gels (Invitrogen) before transfer to polyvinylidene fluoride (PVDF) membranes (Invitrogen). […] After washing, protein bands were detected on X-ray film by using SuperSignal West Pico Chemiluminescent Substrate (Pierce/Thermo Scientific).

[2] = system: JIMT-1 breast cancer xenografts; test: Orthotopic human JIMT-1 breast cancer xenograft model; format: in vivo, mouse
Protocol: Orthotopic xenografts were established by injecting 5×10^6 cells per mouse (suspended in 50% matrigel) into the mammary fat pad on the right flank of 4 to 6-week-old athymic nu/nu mice. […] Treatment with antibodies were administered starting at day 8 post-implantation of JIMT-1 cells. […]

[3] = system: MDA-MB-361 xenografts; test: Orthotopic human MDA-MB-361 breast cancer xenograft model; format: in vivo, mouse; conditions: trastuzumab and rhuMAb 2C4 10 mg/kg, lapatinib 100 mg/kg twice daily, 2C2-YTE 30 mg/kg
Protocol: (§1) Orthotopic xenografts were established by injecting 5×10^6 cells per mouse (suspended in 50% matrigel) into the mammary fat pad on the right flank of 4 to 6-week-old athymic nu/nu mice. Estrogen pellets (0.36 mg) were placed under the skin of the left flank 1-2 days before cell injection. […] Lapatinib was administered by oral gavaging at 100 mg per kilogram body weight. Caliper measurements were used to calculate tumor volumes using the formula: tumor volume=π÷6(length×width×width) • for tumors grown in mice.

[4] = system: human MCF-7 breast cancer xenograft; test: Orthotopic human MCF-7 breast cancer xenograft model; format: in vivo, mouse; conditions: MCF-7 orthotopic, 10 mg/kg
Protocol: as §1, with “Human MCF-7 breast cancer cells were maintained at 37° C. in a 5% CO2 incubator in Optimem medium containing glutamax, 2.4/L sodium bicarbonate, Hepes and 5% fetal bovine serum. Orthotopic” for “Orthotopic”, “Paclitaxel” for “Lapatinib”, “intravenously” for “by oral gavaging”, “10” for “100”

[5] = system: BT-474 xenografts; test: Orthotopic human BT-474 breast cancer xenograft model; format: in vivo, mouse; conditions: BT-474 orthotopic, antibodies 30 mg/kg, lapatinib 100 mg/kg
Protocol: as §1, with “1×10^7” for “5×10^6”

[6] = 10 mpk (each), day 32 post-implantation of JIMT-1 cells, vs control IgG1

pertuzumab [RhuMAb 2C4, reference compound]
effect on HRG ligand-dependent signaling (HER3, pHER3, pAKT; in words) [1]: inhibit HRG ligand-dependent signaling
% TGI [2, 6]: 13.64%
% dTGI [2, 6]: 17.42%
anti-tumor efficacy (in words) ([2]; JIMT-1, 10 mg/kg (each)): did not result in any significant reduction
anti-tumor efficacy (in words) [3]: showed anti-tumor efficacy

CC(=O)O[C@H]1C(=O)[C@@]2(C)[C@H]([C@H](OC(=O)c3ccccc3)[C@]3(O)C[C@H](OC(=O)[C@H](O)[C@@H](NC(=O)c4ccccc4)c4ccccc4)C(C)=C1C3(C)C)[C@]1(OC(C)=O)CO[C@@H]1C[C@@H]2O [Paclitaxel, paclitaxel, reference compound]
anti-tumor efficacy (in words) [4]: clear anti-tumor efficacy

COc1cc2ncnc(Nc3ccc(F)c(Cl)c3)c2cc1OCCCN1CCOCC1 [gefitinib]
effect on HRG ligand-dependent signaling (HER3, pHER3, pAKT; in words) [1]: no effect

CS(=O)(=O)CCNCc1ccc(-c2ccc3ncnc(Nc4ccc(OCc5cccc(F)c5)c(Cl)c4)c3c2)o1 [lapatinib, reference compound]
anti-tumor efficacy (in words) [5]: tumor stasis
anti-tumor efficacy (in words) [3]: showed anti-tumor efficacy
